Assay results reported in the SangsterLogP compilation.

SMILES	logP
Clc1ccc2[nH]c(NCCCc3cnc[nH]3)nc2c1	2.49
c1ccc(-c2c[nH]c(CCCc3cnc[nH]3)n2)cc1	2.5
c1ccc2sc(SCCCc3cnc[nH]3)nc2c1	3.24
O=S(=O)(Cc1ccc(Cl)cc1)NCCCCc1cnc[nH]1	2.23
c1ncc(CCCc2nc(C3CCCCC3)c[nH]2)[nH]1	2.94
c1ccc2sc(NCCc3c[nH]cn3)nc2c1	2.36
S=C(NC1CCCCC1)N1CCC(c2cnc[nH]2)CC1	2.4
c1ccc2sc(NCCCc3cnc[nH]3)nc2c1	2.71
Clc1ccc(Cc2noc(CCc3cnc[nH]3)n2)cc1	2.51
c1ccc2sc(SCCc3cnc[nH]3)nc2c1	3.12
c1ccc(-c2cnc(SCCc3cnc[nH]3)[nH]2)cc1	2.45
